Key:
Bcl-2 WT = Bcl-2 WT (Homo sapiens, UniProt P10415); experiment: Bcl-2 WT inhibition, fluorescence polarization (Flu-BIM tracer) binding assay; details: FP; 20 nM Bcl2, 5 nM Flu-BIM, 1 h incubation; read-out: Bcl-2 w.t. (FP)
RS4; 11Bcl-2-G101V cells = experiment: CellTiter-Glo (CTG) cell viability assay in RS4;11-Bcl-2-G101V cells; assay type: cell-based; details: 72 h, 10% FBS, 3 days
Experimental: RS4; 11Bcl-2-G101V, RS4; 11Bcl-2-D103E, RS4; 11Bcl-2-V156D and RS4; 11Bcl-2-G101V-D103E cells were obtained from Cobioer Biosciences. Cells were maintained in the RPMI-1640 medium with 10% FBS, 1% P/S and puromycin (1 μg/mL) at 37° C. and an atmosphere of 5% CO2.
• The effect of representative Compounds of the Disclosure on cell viability was determined using CellTiter-Glo® (CTG) luminescent cell viability assay (Promega, USA) according to the manufacturer's instructions. 95 μL of cell suspension (10000 cells/well) in culture medium were seeded into 96-well plates and cultured 4 hours. Each tested compound was serially diluted in blank culture medium, and 5 μL of the compound dilution was added to the corresponding well of the cell plate. After the addition of the tested compound, the cells were incubated at 37° C. in an atmosphere of 5% CO2 for 3 days. At the end of 3 days, 30 μL of CTG solution was added to each well of the plate and mix contents for 2 minutes on an orbital shaker. Allow the plate to incubate at room temperature for 15 mins to stabilize signal and record RLU on the Biotek plate reader. The readings were normalized to the vehicle cells, and the IC50 was calculated using GraphPad Prism 8 software.

MV-4-11 cells = experiment: CCK-8 cell viability assay in MV-4-11 cells; assay type: cell-based; details: Homo sapiens, MV4-11, 72 h, 10% FBS, 3 days
Experimental: MV-4-11 cells were obtained from University of Michigan. Cells were maintained in the RPMI-1640 medium with 10% FBS and 1% P/S at 37° C. and an atmosphere of 5% CO2.
• The effect of representative Compounds of the Disclosure on cell viability was determined using Cell Counting Kit-8 (CCK-8) assay (Shanghai Life iLab Biotech) according to the manufacturer's instructions. Each tested compound was serially diluted in culture medium, and 100 μL of the compound dilution was added to the corresponding well of the cell plate. 100 μL of MV-4-11 cell suspension (20000 cells/well) in culture medium were seeded into 96-well plates. The cells were incubated at 37° C. in an atmosphere of 5% CO2 for 3 days. At the end of 3 days, 20 μL of CCK-8 solution was added to each well of the plate and incubated for 1-4 hours. The plates were read at 450 nm on the Biotek plate reader. The readings were normalized to the vehicle cells, and the IC50 was calculated using GraphPad Prism 8 software.

Bcl-2 WT, sequence (P10415 whole entry): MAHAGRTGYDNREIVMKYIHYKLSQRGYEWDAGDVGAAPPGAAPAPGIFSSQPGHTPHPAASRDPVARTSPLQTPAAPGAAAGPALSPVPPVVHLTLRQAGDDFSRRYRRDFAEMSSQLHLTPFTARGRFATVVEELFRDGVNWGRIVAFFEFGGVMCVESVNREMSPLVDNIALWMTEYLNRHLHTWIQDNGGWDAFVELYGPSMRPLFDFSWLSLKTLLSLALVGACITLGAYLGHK

Compound	IC50 (Bcl-2 WT) [nM]	IC50 (RS4; 11Bcl-2-G101V cells) [nM]	IC50 (MV-4-11 cells) [nM]
Cc1sccc1C1=C(CN2CCN(c3ccc(C(=O)NS(=O)(=O)c4ccc(NCC5CCOCC5)c([N+](=O)[O-])c4)c(Oc4cnc5[nH]ccc5c4)c3)CC2)CCC(C)(C)C1 [Example 1, 2-((1H-pyrrolo[2,3-b]pyridin-5-yl)oxy)-4-(4-((4,4-dimethyl-2-(2-methylthiophen-3-yl)cyclohex-1-en-1-yl)methyl)piperazin-1-yl)-N-((3-nitro-4-(((tetrahydro-2H-pyran-4-yl)methyl)amino)phenyl)sulfonyl)benzamide]	15.7	1170	27
Cc1cscc1C1=C(CN2CCN(c3ccc(C(=O)NS(=O)(=O)c4ccc(NCC5CCOCC5)c([N+](=O)[O-])c4)c(Oc4cnc5[nH]ccc5c4)c3)CC2)CCC(C)(C)C1 [Example 2, 2-((1H-pyrrolo[2,3-b]pyridin-5-yl)oxy)-4-(4-((4,4-dimethyl-2-(4-methylthiophen-3-yl)cyclohex-1-en-1-yl)methyl)piperazin-1-yl)-N-((3-nitro-4-(((tetrahydro-2H-pyran-4-yl)methyl)amino)phenyl)sulfonyl)benzamide]	15.9	1300	28
CC1(C)CCC(CN2CCN(c3ccc(C(=O)NS(=O)(=O)c4ccc(NCC5CCOCC5)c([N+](=O)[O-])c4)c(Oc4cnc5[nH]ccc5c4)c3)CC2)=C(c2csc(C(F)(F)F)c2)C1 [Example 3, 2-((1H-pyrrolo[2,3-b]pyridin-5-yl)oxy)-4-(4-((4,4-dimethyl-2-(5-(trifluoromethyl)thiophen-3-yl)cyclohex-1-en-1-yl)methyl)piperazin-1-yl)-N-((3-nitro-4-(((tetrahydro-2H-pyran-4-yl)methyl)amino)phenyl)sulfonyl)benzamide]	27.7	3800	214
Cc1ccc(C2=C(CN3CCN(c4ccc(C(=O)NS(=O)(=O)c5ccc(NCC6CCOCC6)c([N+](=O)[O-])c5)c(Oc5cnc6[nH]ccc6c5)c4)CC3)CCC(C)(C)C2)s1 [Example 6, 2-((1H-pyrrolo[2,3-b]pyridin-5-yl)oxy)-4-(4-((4,4-dimethyl-2-(5-methylthiophen-2-yl)cyclohex-1-en-1-yl)methyl)piperazin-1-yl)-N-((3-nitro-4-(((tetrahydro-2H-pyran-4-yl)methyl)amino)phenyl)sulfonyl)benzamide]	16.2	3940	66
CC(C)c1csc(C2=C(CN3CCN(c4ccc(C(=O)NS(=O)(=O)c5ccc(NCC6CCOCC6)c([N+](=O)[O-])c5)c(Oc5cnc6[nH]ccc6c5)c4)CC3)CCC(C)(C)C2)c1 [Example 8, 2-((1H-pyrrolo[2,3-b]pyridin-5-yl)oxy)-4-(4-((2-(4-isopropylthiophen-2-yl)-4,4-dimethylcyclohex-1-en-1-yl)methyl)piperazin-1-yl)-N-((3-nitro-4-(((tetrahydro-2H-pyran-4-yl)methyl)amino)phenyl)sulfonyl)benzamide]	17.7	1440	21
CC(C)c1csc(C2=C(CN3CCN(c4ccc(C(=O)NS(=O)(=O)c5ccc(NC[C@H]6COCCO6)c([N+](=O)[O-])c5)c(Oc5cnc6[nH]ccc6c5)c4)CC3)CCC(C)(C)C2)c1 [Example 10, (S)—N-((4-(((1,4-dioxan-2-yl)methyl)amino)-3-nitrophenyl)sulfonyl)-2-((1H-pyrrolo[2,3-b]pyridin-5-yl)oxy)-4-(4-((2-(4-isopropylthiophen-2-yl)-4,4-dimethylcyclohex-1-en-1-yl)methyl)piperazin-1-yl)benzamide]	20.3	1040	16
CC(C)c1sccc1C1=C(CN2CCN(c3ccc(C(=O)NS(=O)(=O)c4ccc(NCC5CCOCC5)c([N+](=O)[O-])c4)c(Oc4cnc5[nH]ccc5c4)c3)CC2)CCC(C)(C)C1 [Example 11, 2-((1H-pyrrolo[2,3-b]pyridin-5-yl)oxy)-4-(4-((2-(2-isopropylthiophen-3-yl)-4,4-dimethylcyclohex-1-en-1-yl)-methyl)piperazin-1-yl)-N-((3-nitro-4-(((tetrahydro-2H-pyran-4-yl)methyl)amino)-phenyl)sulfonyl)benzamide]	20.9	2360	54
CC1(C)CCC(CN2CCN(c3ccc(C(=O)NS(=O)(=O)c4ccc(NC[C@H]5COCCO5)c([N+](=O)[O-])c4)c(Oc4cnc5[nH]ccc5c4)c3)CC2)=C(c2cc3c(s2)CCN(c2ccc(F)cc2)C3)C1 [Example 15, (S)—N-((4-(((1,4-dioxan-2-yl)methyl)amino)-3-nitrophenyl)sulfonyl)-2-((1H-pyrrolo[2,3-b]pyridin-5-yl)oxy)-4-(4-((2-(5-(4-fluorophenyl)-4,5,6,7-tetrahydrothieno[3,2-c]pyridin-2-yl)-4,4-dimethylcyclohex-1-en-1-yl)methyl)piperazin-1-yl)benzamide]	27.6	8810	466
CC1(C)CCC(CN2CCN(c3ccc(C(=O)NS(=O)(=O)c4ccc(NC[C@H]5CC[C@](C)(O)CC5)c([N+](=O)[O-])c4)c(Oc4cnc5[nH]ccc5c4)c3)CC2)=C(c2cc(-c3c(Cl)cc(C(C)(C)O)cc3Cl)cs2)C1 [Example 66, 2-((1H-pyrrolo[2,3-b]pyridin-5-yl)oxy)-4-(4-((2-(4-(2,6-dichloro-4-(2-hydroxypropan-2-yl)phenyl)thiophen-2-yl)-4,4-dimethylcyclohex-1-en-1-yl)methyl)piperazin-1-yl)-N-((4-((((1r,4r)-4-hydroxy-4-methylcyclohexyl)methyl)amino)-3-nitrophenyl)sulfonyl)benzamide]	–	361	132
COC(C)(C)c1ccc(-c2csc(C3=C(CN4CCN(c5ccc(C(=O)NS(=O)(=O)c6ccc(NC[C@H]7CC[C@](C)(O)CC7)c([N+](=O)[O-])c6)c(Oc6cnc7[nH]ccc7c6)c5)CC4)CCC(C)(C)C3)c2)c(F)c1 [Example 76, 2-((1H-pyrrolo[2,3-b]pyridin-5-yl)oxy)-4-(4-((2-(4-(2-fluoro-4-(2-methoxypropan-2-yl)phenyl)thiophen-2-yl)-4,4-dimethylcyclohex-1-en-1-yl)methyl)piperazin-1-yl)-N-((4-((((1r,4r)-4-hydroxy-4-methylcyclohexyl)methyl)amino)-3-nitrophenyl)sulfonyl)benzamide]	–	1700	95
CC1(C)CCC(CN2CCN(c3ccc(C(=O)NS(=O)(=O)c4ccc(NC[C@H]5CC[C@](C)(O)CC5)c([N+](=O)[O-])c4)c(Oc4cnc5[nH]ccc5c4)c3)CC2)=C(c2cc(-c3c(F)cc(C4(O)CCC4)cc3F)cs2)C1 [Example 77, 2-((1H-pyrrolo[2,3-b]pyridin-5-yl)oxy)-4-(4-((2-(4-(2,6-difluoro-4-(1-hydroxycyclobutyl)phenyl)thiophen-2-yl)-4,4-dimethylcyclohex-1-en-1-yl)methyl)piperazin-1-yl)-N-((4-((((1r,4r)-4-hydroxy-4-methylcyclohexyl)methyl)amino)-3-nitrophenyl)sulfonyl)benzamide]	–	490	25

— patent US12577245B2, “Sulfonyl benzamide derivatives as Bcl-2 inhibitors” (ASCENTAGE PHARMA (SUZHOU) CO., LTD., priority 2021, dated 2026)
